# According to patent US6821326B2 (Arch Chemicals, Inc., priority 2002, dated 2004):
# Legend:
# [1] = Particle size analysis on a Horiba Laser light scattering particle size analyzer; format: physicochemical; details: commercial powder before low shear mixing into xylene dispersion (Comparative Example A)
# Procedure: As a comparison to the dispersions of the present invention, 13 grams “LAROFLEX MP25” polymer resin (vinyl chloride-isobutyl vinyl ether copolymer, a product of BASF Corporation, Charlotte, N.C.) was dissolved into 832 grams of xylene. […] The mixture was stirred at low speed (1000 rpm) and with low shear for 0.5 hours to provide adequate mixing until a homogenous mixture was achieved.
# The diluted sample was then run though a Mini Zeta Netzsch mill for 150 minutes at 2000 rpm.
# [2] = rats, powder, compared with zinc pyrithione powder; cited from earlier work
structure (smiles),measurement,setting,value
"On1ccccc1=S.On1ccccc1=S.[Cu] [Copper Pyrithione, copper pyrithione]",Mean Particle Size,[1],3.09 Microns
same,Median Particle Size,[1],3.40 Microns
same,acute inhalation toxicity,[2],more toxic than zinc pyrithione powder
